# Source: patent US12636323B2, “Use of Clostridium ghonii combined with tumor angiogenesis inhibitor” (priority 2021, dated 2026)
# Experiments:
# [1] = test system: CT26 tumor cells; experiment: Antitumor effect of Clostridium ghonii spores combined with different doses of apatinib (AITAN) in CT26 mouse model; type: in vivo, BALB/c mice; conditions: for Tumor inhibition rate (row head: Anti-bacterial rate): calculated from tumor weight; for Tumor weight: n=7; for Cure rate: tumors completely eliminated at end of experiment
# Experimental: BALB/c mice were subcutaneously inoculated with CT26 tumor cells to establish a subcutaneous tumor model for colon cancer. 0.2 mL of a cell suspension with a concentration of 7.5×10^6 cells/mL (acceptable range: 6.75×10^6 cells/mL-8.25×10^6 cells/mL) was extracted with a 1-mL disposable sterile syringe and slowly subcutaneously injected into axillae of right forelimbs of mice (pre-sterilized with 75% alcohol). After injection, needle eyes were gently pressed with dry cotton balls.
# Tumor measurement: a maximum long diameter (L) and a maximum transverse diameter (W) of a tumor (including a thickness of a mouse skin) were measured with a vernier caliper, and a tumor volume was calculated according to a formula of
# Tumor weight: a tumor tissue was dissected out and weighed and tumor weight was recorded.
# Tumor inhibition rate (IRTW%)=(average tumor weight of control group-average tumor weight of experimental group)/average tumor weight of control group×100%.
# (§1) According to a random principle, the conforming mice (a tumor volume of 0.31-0.41 cm^3) were divided into 8 groups by lottery: control group, spore group, high-dose apatinib (AITAN) group, medium-dose apatinib (AITAN) group, low-dose apatinib (AITAN) group, Clostridium ghonii combined low-dose apatinib (AITAN) group, Clostridium ghonii combined medium-dose apatinib (AITAN) group, and Clostridium ghonii combined high-dose apatinib (AITAN) group.
# (§2) Control group: the mice were intratumorally administrated with a same volume of a 0.9% sodium chloride injection; • spore group: the mice were intratumorally administrated at a dose of 1×10^7 cfu/tumor/time twice; • High-dose apatinib (AITAN) group: the mice were gavaged at a dose of 180 mg/kg/d once every day for a total of 7 times; • Medium-dose apatinib (AITAN) group: the mice were gavaged at a dose of 120 mg/kg/d once every day for a total of 7 times; • Low-dose apatinib (AITAN) group: the mice were gavaged at a dose of 60 mg/kg/d once every day for a total of 7 times; and
# (§3) Clostridium ghonii combined apatinib (AITAN) groups: mice were first intratumorally administrated with apatinib (AITAN) once every day for 3 days and then Clostridium ghonii spores at a dose of 1×10^7 cfu/tumor/time once every other day for a total of two times. The dose of the apatinib (AITAN) in the combined high, medium and low-dose apatinib (AITAN) groups was the same as that in the high, medium and low-dose apatinib (AITAN) groups.
# [2] = Death and net body weight of tumor-bearing mice in Example 3; type: in vivo, BALB/c mice; conditions: mean ± SD, n=7
# Experimental: Clinical observation: during an administration period, animal behaviors, death or near-death, etc. were observed using the naked eyes once every morning and afternoon.
# Body weight: during the administration period, body weight was measured on the day of the tumor measurement from the day of treatment.
# as §1, §2, §3
# [3] = medium-dose apatinib 120 mg/kg/d
structure (smiles),measurement,setting,value
"N#CC1(c2ccc(NC(=O)c3cccnc3NCc3ccncc3)cc2)CCCC1 [apatinib (AITAN), apatinib]",Tumor volume,"[1]; D-1, Table 2 (low-dose apatinib)",1049.42 ± 166.37 mm^3
same,Tumor volume,"[1]; D-1, upper part of Table 2, low-dose apatinib 60 mg/kg/d",931.50 ± 97.91 mm
same,Tumor volume,"[1]; D-4, Table 2 (low-dose apatinib)",1499.45 ± 303.10 mm^3
same,Tumor volume,"[1]; D-4, upper part of Table 2, low-dose apatinib 60 mg/kg/d",1489.82 ± 232.84 mm
same,Tumor volume,"[1]; D-8, Table 2 (low-dose apatinib)",2442.80 ± 882.95 mm^3
same,Tumor volume,"[1]; D-8, upper part of Table 2, low-dose apatinib 60 mg/kg/d",2275.35 ± 348.84 mm
same,Tumor inhibition rate (row head: Anti-bacterial rate),[1]; high-dose apatinib 180 mg/kg/d,21.68%
same,Tumor inhibition rate (row head: Anti-bacterial rate),[1]; low-dose apatinib 60 mg/kg/d,20.21%
same,Tumor inhibition rate (row head: Anti-bacterial rate),[1]; [3],13.89%
same,Tumor weight,[1]; high-dose apatinib 180 mg/kg/d,3.49 ± 0.86 g
same,Tumor weight,[1]; low-dose apatinib 60 mg/kg/d,3.55 ± 0.61 g
same,Tumor weight,[1]; [3],3.84 ± 0.69 g
same,Cure rate,[1]; high-dose apatinib 180 mg/kg/d,0%
same,Cure rate,[1]; low-dose apatinib 60 mg/kg/d,0%
same,Cure rate,[1]; [3],0%
same,Net body weight,[2]; high-dose apatinib 180 mg/kg/d,18.44 ± 1.42 g
same,Net body weight,[2]; low-dose apatinib 60 mg/kg/d,18.32 ± 1.12 g
same,Net body weight,[2]; [3],18.02 ± 1.61 g
